≈ marks a conversion by molar mass, not a printed value. Like-named read-outs stand apart in the source and are kept apart here.
Experiments:
[1] = system: MTb H37Rv; assay: Intracellular ATP levels (BacTiter-Glo); details: 24 h drug exposure
[2] = system: M. tuberculosis; assay: microbe, parasite or virus in culture; format: cell-based; details: Mycobacterium tuberculosis; read-out: MIC (internal control reference compound)
[3] = system: cyd knockout strain (cydC::aph); format: cell-based, Mycobacterium tuberculosis
[4] = physchem; format: physicochemical; details: for solubility kinetic: water, kinetic from dmso stock
Experimental: The aqueous solubility of the test compounds was measured using laser nephelometry. Compounds were subject to serial dilution from 10 to 0.5 mM in DMSO. An aliquot was then mixed with Milli-Q water to obtain an aqueous dilution plate with a final concentration range of 250–12 μM, with a final DMSO concentration of 2.5%. Triplicate aliquots were transferred to a flat bottomed polystyrene plate which was immediately read on the NEPHELOstar (BMG Lab Technologies). The amount of laser scatter caused by insoluble particulates (relative nephelometry units, RNU) was plotted against compound concentration using a segmental regression fit, with the point of inflection being quoted as the compounds aqueous solubility (μM).

[5] = system: M. tuberculosis H37Rv; assay: microbe, parasite or virus in culture; format: cell-based; details: Mycobacterium tuberculosis
[6] = physchem; format: physicochemical; details: pH 7.4
Experimental: The chromatographic hydrophobicity index (CHI) was determined according the method previously described.[43],[44] Briefly, test compounds were prepared as 0.5 mM solutions in 50:50 acetonitrile/water and analyzed by reversed-phase HPLC-UV (wavelength 254 nm) using a Phenomenex Luna C18 100 Å, 150 × 4.6 mm, 5 μm column with a gradient of aqueous phase (50 mM ammonium acetate (pH 7.4)) and mobile phase (acetonitrile). By plotting the retention time of a set of reference compounds against known CHI values, the CHI value of test compounds was calculated according to their retention time.

[7] = Calculated properties (StarDrop)
[8] = system: piniBAC reporter strain; format: cell-based, Mycobacterium tuberculosis; details: upregulation of iniBAC promoter
[9] = format: in vitro ADME; details: female, CD1, mouse, 0.5 μM, pH 7.4
Experimental: Test compound (0.5 μM) was incubated with female CD1 mouse liver microsomes (Xenotech LLC; 0.5 mg/mL, 50 mM potassium phosphate buffer, pH 7.4), and the reaction started with addition of excess NADPH (8 mg/mL, 50 mM potassium phosphate buffer, pH 7.4). Immediately, at time zero, and then at 3, 6, 9, 15, and 30 min, an aliquot (50 μL) of the incubation mixture was removed and mixed with acetonitrile (100 μL) to stop the reaction. Internal standard was added to all samples; the samples were centrifuged to sediment precipitated protein, and the plates were then sealed prior to UPLC-MS/MS analysis using a Quattro Premier XE (Waters Corporation, USA). XLfit (IDBS, UK) was used to calculate the exponential decay and consequently the rate constant (k) from the ratio of peak area of test compound to internal standard at each time point. The rate of intrinsic clearance (Cli) of each test compound was then calculated using the following calculation. [drawing 1] where V (mL/mg protein) is the incubation volume/mg protein added and microsomal protein yield is taken as 52.5 mg protein/g liver. Verapamil (0.5 μM) was used as a positive control to confirm acceptable assay performance.

[10] = molecular target: T1, recombinant MBP-MtNdh (MTb NDH-2) (Mycobacterium tuberculosis, UniProt P95160); assay: Ndh activity assay (NADH oxidation at 340 nm); format: biochemical; details: NADH 250 μM, Q2 40 μM; mean ± SD, Figure 6 inset; read-out: IC50 against MBP-MtNdh
T1 construct: The ORF corresponding to Rv1854c was codon optimized for E. coli; made in house; host or cells: E. coli BL21 (DE3) pLysS
T1 sequence (P95160 whole entry): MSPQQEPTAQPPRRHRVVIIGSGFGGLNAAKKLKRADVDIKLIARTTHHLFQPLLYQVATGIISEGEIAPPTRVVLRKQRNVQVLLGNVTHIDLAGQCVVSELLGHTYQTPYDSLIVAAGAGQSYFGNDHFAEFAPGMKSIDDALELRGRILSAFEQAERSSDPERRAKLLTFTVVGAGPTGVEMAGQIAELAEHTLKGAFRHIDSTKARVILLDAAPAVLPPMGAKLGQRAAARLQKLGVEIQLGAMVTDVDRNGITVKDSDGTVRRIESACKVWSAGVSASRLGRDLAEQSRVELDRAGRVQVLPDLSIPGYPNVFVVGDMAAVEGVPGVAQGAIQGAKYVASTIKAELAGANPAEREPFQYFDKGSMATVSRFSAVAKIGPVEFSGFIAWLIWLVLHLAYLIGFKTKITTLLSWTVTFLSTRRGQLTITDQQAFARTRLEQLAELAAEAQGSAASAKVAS

[11] = system: M. tuberculosis H37Rv; assay: H37Rv MIC in GAST medium; format: cell-based, Mycobacterium tuberculosis
[12] = in vitro; format: in vitro ADME; details: PAMPA, pH 7.4
Experimental: The permeability was performed using a 96-well precoated BD Gentest PAMPA plate (BD Biosciences, U.K.). Each well was divided into two chambers: donor and acceptor, separated by a lipid-oil-lipid trilayer constructed in a porous filter. The effective permeability, Pe, of the compound was measured at pH 7.4. Stock solutions (5 mM) of the compound were prepared in DMSO. The compound was then further diluted to 10 μM in phosphate buffered saline at pH 7.4. […] The compound dissolved in phosphate buffered saline was then added to the donor side of the membrane, and phosphate buffered saline without compound was added to the acceptor side. The PAMPA plate was left at room temperature for 5 h; after which time, an aliquot (100 μL) was then removed from both acceptor and donor compartments and mixed with acetonitrile (80 μL) containing an internal standard: donepezil at 50 ng/mL). The samples were centrifuged (10 min, 5 °C, 3270g) to sediment precipitated protein and sealed prior to UPLC-MS/MS analysis using a Quattro Premier XE (Waters Corp, USA). Pe was calculated as shown in the below equation. [drawing 2] where CA(t) = peak area of compound present in acceptor well at time (t) = 18 000 s; Cequi = [CD(t) × VD + CA(t) × VA]/(VD + VA); A = filter area; VD = donor well volume; VA = acceptor well volume; t = incubation time; CD(t) = peak area of compound present in donor well at time (t) = 18 000 s. Recovery of compound from donor and acceptor wells was calculated, and data was only accepted when recovery exceeded 70%.

[13] = format: in vitro ADME; details: mouse, plasma
Experimental: In brief, a 96-well equilibrium dialysis apparatus was used to determine the free fraction in plasma for each compound (HT Dialysis LLC, Gales Ferry, CT). Membranes (12–14 kDaA cutoff) were conditioned in deionized water for 60 min, followed by conditioning in 80:20 deionized water/ethanol overnight and then rinsed in water and isotonic buffer before use. Mouse plasma from appropriate species was removed from the freezer and allowed to thaw on the day of experiment. Thawed plasma was then centrifuged (Allegra X12-R, Beckman Coulter, USA) and spiked with test compound (final concentration 10 μg/mL), and 150 μL aliquots (n = 3 replicate determinations) were loaded into the 96-well equilibrium dialysis plate. Dialysis against isotonic buffer (150 μL) was carried out for 5 h in a temperature controlled incubator at ca. 37 °C (Barworld scientific Ltd., UK) using an orbital microplate shaker at 100 rpm (Barworld scientific Ltd., UK). At the end of the incubation period, 50 μL aliquots of plasma or buffer were transferred into a 96-well deep plate and the composition in each well was balanced with control fluid (50 μL), such that the volume of buffer to plasma is the same. Sample extraction was performed by the addition of 200 μL of acetonitrile containing an appropriate internal standard. Samples were allowed to mix for 1 min and then centrifuged at 3000 rpm in 96-well blocks for 15 min (Allegra X12-R, Beckman Coulter, USA) after which 150 μL of supernatant was removed to 50 μL of water. All samples were analyzed by UPLC-MS/MS on a Quattro Premier XE Mass Spectrometer (Waters Corporation, USA). The unbound fraction was determined as the ratio of the peak area in buffer to that in plasma.

[14] = system: HepG2; assay: cells; details: Homo sapiens, HepG2, read-out: HepG2 IC50
[15] = Mouse pharmacokinetics; format: in vivo, female C57Bl/6 mice; details: for AUC(0-t) / Cmax: 10 mg/kg; for AUC: whole blood, single rising oral dose
Experimental: Test compound was dosed as a bolus solution intravenously at 3 mg free base/kg (dose volume: 5 mL/kg; dose vehicle: 10% DMSO; 40% PEG400; 50% saline) to female C57Bl/6 mice (n = 3) or dosed orally by gavage as a suspension at 10 or at 5, 30, or 100 mg free base/kg (dose volume: 10 mL/kg; dose vehicle: 1.0% carboxy methyl cellulose) to female C57Bl/6 mice (n = 3/dose level). Blood samples were taken from each mouse tail vein at predetermined time points postdose, mixed with nine volumes of distilled water, and stored frozen until UPLC-MS/MS analysis. Pharmacokinetic parameters were derived from the blood concentration time curve using PK Solutions software v 2.0 (Summit Research Services, USA).

[16] = system: HepG2; details: human
[17] = mouse liver microsomes
[18] = system: M. tuberculosis H37Rv; assay: Extracellular flux analysis (oxygen consumption rate); details: 1 at 39 μM, 7 at 45 μM
[19] = molecular target: T1, recombinant MBP-MtNdh (MTb NDH-2); parameters: method as in PMID 15767566; details: range covering Figure 6 and literature; read-out: IC50 against NDH-2 (text, chlorpromazine); cited from earlier work
[20] = Mycobacterium tuberculosis, H37RV, read-out: GAST MIC
[21] = Mycobacterium tuberculosis, H37RV, read-out: GAST MIC in ng/mL
[22] = female, C57Bl/6, mouse, in vivo, po
[23] = female, C57Bl/6, mouse, in vivo

COc1nc2ccc(Br)cc2cc1[C@@H](c1ccccc1)[C@@](O)(CCN(C)C)c1cccc2ccccc12 [bedaquiline]
Cellular ATP levels in MTb [1]: depletion of cellular ATP levels

NNC(=O)c1ccncc1 [Isoniazid, isoniazid]
MIC [2]: 0.2 µM (≈ 0.0274 µg/mL)

O=C(CSc1nc2ccccc2c(=O)[nH]1)NCc1ccccc1 [Compound 2]
Cyd KO reporter [3]: Not likely QcrB inhibitor
solubility kinetic [4]: 109 µM (≈ 35.5 µg/mL)
MIC ([5]; read-out: 7H9-ADC MIC): 4.5 µM
chromatographic logD [6]: 1.5
PFI [7]: 4.3
pini-LUC reporter [8]: Not likely cell wall inhibitor
Microsomal Cli, mouse [9]: Mouse 1.6 mL/min/g
IC50 [10]: 0.51 ± 0.05 µM
MIC [11, 20]: 5.9 µM

O=C(CSc1nc2ccccc2c(=O)[nH]1)NCC1CCC(F)(F)CC1 [Compound 11, N-((4,4-Difluorocyclohexyl)methyl)-2-((4-oxo-3,4-dihydroquinazolin-2-yl)thio)acetamide]
Kinetic solubility [4]: >250 µM
solubility kinetic [4]: 250 µM (≈ 91.9 µg/mL)
MIC ([5]; read-out: 7H9-ADC MIC): 1.1 µM
MIC ([5]; read-out: 7H9-ADC MIC in ng/mL): 294 ng/mL
chromatographic logD [6]: 1.6
Papp at 5 h, 10 μM [12]: 6.5 ×10⁻⁶ cm/s
PPB (% unbound) [13]: 21 % unbound
IC50 [14]: > 50 µM
IC50 [10]: 0.026 ± 0.006 µM
MIC [11, 20]: 0.8 µM
MIC [11, 21]: 294 ng/mL
MIC ([11]; read-out: GAST MIC): 0.8 µM
AUC(0-t) [15, 22]: 2140 ng·h/mL
Cmax [15, 22]: 1110 ng/mL

O=C(CSc1nc2ccccc2c(=O)[nH]1)NC1CCC(F)(F)CC1 [Compound 7, N-(4,4-Difluorocyclohexyl)-2-((4-oxo-3,4-dihydroquinazolin-2-yl)thio)acetamide]
HepG2 cytotoxicity (in words) [16]: no HepG2 cytotoxicity was observed
Mouse microsomal metabolite identification [17]: a small amount of amide bond cleavage as well as oxidation of the quinazolin-4(3H)-one ring
Kinetic solubility [4]: 111 (HCl salt) μM
solubility kinetic [4]: 105 µM (≈ 37.1 µg/mL)
MIC ([5]; read-out: 7H9-ADC MIC): 0.4 µM
MIC ([5]; read-out: 7H9-ADC MIC in ng/mL): 141 ng/mL
chromatographic logD [6]: 1.5
Papp at 5 h, 10 μM [12]: 6.4 ×10⁻⁶ cm/s
PPB (% unbound) [13]: 13 % unbound
IC50 [14]: > 50 µM
Effect on maximal respiration after CCCP uncoupling ([18]; CCCP 3 μM, compared to untreated control): significantly diminished maximal respiration
Effect on basal MTb OCR ([18]; ~45 min, glucose or palmitate): minimal effect
IC50 [10]: 0.0066 ± 0.004 µM
Human microsomal metabolite identification (human liver microsomes): oxidation of the quinazolinone ring
GSH trapping: adducts formed (with and without human liver microsomes): GSH adducts 12 and 13, without microsomal activation
MIC [11, 20]: 0.4 µM
MIC [11, 21]: 141 ng/mL
Clb [15, 23]: 39 mL/min/kg
Vd [15, 23]: 1 L/kg
bioavailability [15, 23]: 29%
AUC(0-t) [15, 22]: 1120 ng·h/mL
Cmax [15, 22]: 399 ng/mL
AUC ([15]; female, C57Bl/6, mouse, 5 mg/kg, read-out: AUC at 5 mg/kg oral (converted)): 9430 ng·h/mL
AUC ([15]; female, C57Bl/6, mouse, 30 mg/kg, read-out: AUC at 30 mg/kg oral (converted)): 2190 ng·h/mL
AUC ([15]; female, C57Bl/6, mouse, 100 mg/kg, read-out: AUC at 100 mg/kg oral (converted)): 2200 ng·h/mL
half-life ([15]; female, C57Bl/6, whole blood, C57 mouse PK at 3 iv and 10 po (mg/kg), 1 free base, 7 HCl salt): 1.3 h
Dose linearity (AUC comparison) ([15]; mouse, in vivo, po, 100 mg/kg): no dose linearity was observed

CN(C)CCCN1c2ccccc2Sc2ccc(Cl)cc21 [CPZ, chlorpromazine, reference compound]
IC50 [19]: 10 to 25 µM
IC50 [10]: 25 ± 2 µM
